Assays:
TNF = test: Pre-screen of anti-TNF activity, cells + LPS (Table 2); assay type: cell-based
serum TNF-α [1] = test: LPS induced TNF-α release in Balb/c mice, pre-treatment; assay type: in vivo; settings: serum 1 hr post LPS
Protocol: (§1) The present invention has studied the ability of RSCL-0520 to exert protection against inflammatory agents in a mice (Balb/c) model. Balb/c (5-6 weeks) mice were injected with LPS (225 μg) intraperitoneally with and without pretreatment of RSCL-0520 (10 and 20 mg/kg). The compound was injected intraperitoneally 30 min before LPS treatment. The mice were monitored for 1 hr post LPS treatment. Untreated mice served as controls. Blood from retro-orbital plexus was collected under anesthesia 1 hr post LPS injection. Serum collected was analysed for TNF-α secretion using an ELISA detection kit.

serum TNF-α [2] = test: LPS induced TNF-α release in Balb/c mice, treatment post LPS; assay type: in vivo
Protocol: as §1
Our results have more significance from the post LPS treatment of RSCL-0520. Here we have stimulated the inflammation process in mice with an injection of LPS (225 μg) intraperitoneally and 30 min post LPS, we have challenged the ability of RSCL-0520 at two different doses (10 mg/kg, 20 mg/kg) to inhibit the TNF-α secretion.

THP-1 cells = test: Toxicity to THP-1 cells by MTT assay; assay type: cell-based, human; settings: analyzed in tandem with TNF-α assay
From the text: The toxicity of RSCL-0520 (FIG. 2b) was also by treating cells with RSCL-0520 by MTT assay. […] The viability of the cells (analyzed in tandem by MTT) was not affected by RSCL-0520 indicating its non-toxic nature.

TLR4 [3] = biological target: T1, TLR4 (Homo sapiens, UniProt O00206); test: TLR4 ligand induced TNF-α secretion in PBMCs (ELISA); assay type: cell-based; settings: 1 hr pretreatment, TLR4 ligand 750 ng/ml, 24 hrs
T1 construct: endogenous in cells
T1 sequence (O00206 24-839): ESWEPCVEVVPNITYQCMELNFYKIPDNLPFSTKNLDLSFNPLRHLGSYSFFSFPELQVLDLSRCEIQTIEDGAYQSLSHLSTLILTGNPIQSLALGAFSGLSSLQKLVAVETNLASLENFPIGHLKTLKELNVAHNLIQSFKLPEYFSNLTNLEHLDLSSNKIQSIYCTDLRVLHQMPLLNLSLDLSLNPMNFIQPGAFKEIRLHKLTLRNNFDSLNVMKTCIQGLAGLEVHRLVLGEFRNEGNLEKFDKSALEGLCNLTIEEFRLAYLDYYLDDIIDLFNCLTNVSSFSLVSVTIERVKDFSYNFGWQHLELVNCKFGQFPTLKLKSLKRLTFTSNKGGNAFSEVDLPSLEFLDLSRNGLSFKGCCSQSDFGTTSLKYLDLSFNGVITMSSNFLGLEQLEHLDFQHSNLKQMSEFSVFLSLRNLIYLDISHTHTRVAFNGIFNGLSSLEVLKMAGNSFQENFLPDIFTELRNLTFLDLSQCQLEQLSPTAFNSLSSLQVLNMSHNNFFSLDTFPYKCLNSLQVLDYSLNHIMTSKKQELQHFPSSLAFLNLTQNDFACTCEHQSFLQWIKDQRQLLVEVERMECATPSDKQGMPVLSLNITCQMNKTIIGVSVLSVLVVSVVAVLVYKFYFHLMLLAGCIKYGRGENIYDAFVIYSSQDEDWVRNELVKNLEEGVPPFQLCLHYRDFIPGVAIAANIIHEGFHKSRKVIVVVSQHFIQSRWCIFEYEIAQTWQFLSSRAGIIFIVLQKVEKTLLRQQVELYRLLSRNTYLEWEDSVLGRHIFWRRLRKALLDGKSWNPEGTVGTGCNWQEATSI
T1 sequence (Q9Y6Y9 17-160 partner limits assumed): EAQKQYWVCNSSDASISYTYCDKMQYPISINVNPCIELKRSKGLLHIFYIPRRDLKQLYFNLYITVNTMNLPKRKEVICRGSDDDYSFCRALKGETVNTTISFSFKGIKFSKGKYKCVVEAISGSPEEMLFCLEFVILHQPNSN
Protocol: (§2) The present invention has checked the effect of various TLR ligands on THP-1 monocytes, PBMCs and their ability to activate and release TNF-α. For this purpose about 9 TLR ligands were used. These ligands were obtained from Apotech Cat; APO-54N-018-K101 and assayed for TNF-α release in culture supernatants. THP-1 (FIG. 1a) and PBMCs (2×10^5 cells/well) (FIG. 1b) were plated in 96-well plate. The cells were pretreated with RSCL-0520 in DMSO 1 hr prior to TLR ligand treatment. Following 1 hr pre-treatment, the cells were treated with TLR ligands [TLR2, TLR5 and TLR6-75 ng/ml each, TLR3-75 μg/ml, TLR4-750 ng/ml, TLR7, TLR8 and TLR9-7.5 μg/ml) for 24 hrs. The culture supernatant were collected after the stipulated time and assayed for TNF-α release using a Duoset Enzyme-Linked ImmunoSorbent Assay (ELISA) detection Kit (R&D systems, MN 55413, USA; Cat: DY-210 E). Simultaneously, supernatants from cells treated with ligands without RSCL-0520 pre-treatment and RSCL-0520 without ligand treatment were collected which served as respective controls.

TLR4 [4] = biological target: T1, TLR4; test: TLR4 ligand induced TNF-α secretion in THP-1 cells (ELISA); assay type: cell-based; settings: 1 hr pretreatment, TLR4 ligand 750 ng/ml, 24 hrs
Protocol: as §2

Row | Compound | inhibition at 1 µM (TNF; Cells + 1 μM + LPS) | inhibition at 10 µM (TNF; Cells + 10 μM + LPS) | inhibition at 50 µM (TNF; Cells + 50 μM + LPS) | inhibition at 100 µM (TNF; Cells + 100 μM + LPS) | other results
1 | COc1cc2c(c(OC(C)=O)c1)-c1ccc(OC)c(OC(C)=O)c1CC2 [RSCL-0521, 1,5-diacetoxy-2,7-dimethoxy-9,10-dihydrophenanthrene] | 0% | 13% | 76% | 92% | 
2 | COc1ccc2c(ccc3cc(OC)c(OC)c(OC)c32)c1 [RSCL-0575, 2,3,4,7-tetramethoxyphenanthrene] | 26% | 33% | 32% | 49% | 
3 | COc1cc(OCc2ccccc2)c2c(ccc3c(OCc4ccccc4)c(OC)ccc32)c1 [RSCL-0638, 1,5-dibenzyloxy-2,7-dimethoxy phenanthrene] | 0% | 0% | 0% | 0% | 
4 | COc1c(OC(=O)/C=C/c2ccc(OC(C)=O)c(OC(C)=O)c2)cc2ccc3cc(OC(=O)/C=C/c4ccc(OC(C)=O)c(OC(C)=O)c4)ccc3c2c1OC [RSCL-0522, 3,4-dimethoxyphenanthrene-2,7-bis-[(2E)-3-[3,4-bis(acetyloxy)phenyl] acrylate] |  |  |  |  | % TNF Inhibition (TNF; Cells + 1 μM + LPS): 0%; % TNF Inhibition (TNF; Cells + 10 μM + LPS): 12%; % TNF Inhibition (TNF; Cells + 50 μM + LPS): 37%; % TNF Inhibition (TNF; Cells + 100 μM + LPS): 34%
5 | COc1c(OC(C)=O)cc2ccc3cc(OC(C)=O)ccc3c2c1OC [RSCL-0519, 2,7-diacetoxy-3,4-dimethoxyphenanthrene] | 0% | 0% | 21% | 72% | 
6 | COc1c(O)cc2ccc3cc(O)ccc3c2c1OC [RSCL-0518, 2,7-dihydroxy-3,4-dimethoxyphenanthrene] | 0% | 0% | 39% | 87% | 
7 | COc1cc(O)c2c(c1)CCc1c-2ccc(OC)c1O [RSCL-0520, 1,5-dihydroxy-2,7-dimethoxy-9,10-dihydrophenanthrene] | 4% | 40% | 95% | 100% | reduction of serum TNF production (serum TNF-α [1]; 10 mg/kg i.p. 30 min before LPS 225 μg i.p.): ~66%; reduction of serum TNF production (serum TNF-α [1]; 20 mg/kg i.p. 30 min before LPS 225 μg i.p.): ~70%; inhibition of TNF secretion (serum TNF-α [2]; 10 mg/kg given 30 min post LPS 225 μg i.p.): ~38%; inhibition of TNF secretion (serum TNF-α [2]; 20 mg/kg given 30 min post LPS 225 μg i.p.): 49%; viability of the cells (MTT) (THP-1 cells): not affected; decrease of TNF-α production (TLR4 [3]): ~50%; decrease of TNF-α production (TLR4 [4]): ~50%

From patent publication US20090215908A1, “TOLL LIKE RECEPTOR (TLR) SIGNALING ANTAGONIST” (RELIANCE LIFE SCIENCES PVT. LTD., priority 2007, published 2009)
